Measured values taken from ChEMBL document CHEMBL3745611 (J Med Chem, 2015).
In brackets after ≈: the same amount, converted by molar mass. Activity calls are given as the source filed them. The calls are words filed in the database; no cut-off is given here.

Key:
[1] = target: T1, Transitional endoplasmic reticulum ATPase (Homo sapiens, UniProt P55072)
Description: Inhibition of human p97 ATPase incubated for 15 mins by ADP Glo luminescence assay

A549 [2] = assay: cells; details: Homo sapiens, A549, 72 h
Description: Cytotoxicity against human A549 cells assessed as cell viability after 72 hrs by Celltiter-Glo assay

[3] = Aqueous solubility of compound; assay type: physicochemical; details: aqueous medium
[4] = target: T1, Transitional endoplasmic reticulum ATPase; remark: listed apart in the source
Description: Inhibition of p97 ATPase in human A549 cells assessed as accumulation of K48 poly-ubiquitinated proteins incubated for 6 hrs by immunofluorescence assay

[5] = Half life in mouse liver microsomes; assay type: ADME; details: for half-life: liver microsomes
[6] = target: T1, Transitional endoplasmic reticulum ATPase; assay: Inhibition of p97 ATPase in human A549 cells assessed as reduction in p62 protein incubated for 6 hrs by immunofluorescence assay; assay type: cell-based
[7] = target: T1, Transitional endoplasmic reticulum ATPase; remark: listed apart in the source
Description: Inhibition of p97 ATPase in human A549 cells assessed as accumulation of CHOP poly-ubiquitinated proteins incubated for 6 hrs by immunofluorescence assay

AMO1 = details: Homo sapiens
Description: Antitumor activity against human AMO1 cells xenografted in nude SCID beige mouse assessed as tumor growth inhibition at 1 mg/kg, iv administered twice per week

A549 [8] = assay: Antitumor activity against human A549 cells xenografted in […] SCID beige mouse assessed as tumor growth inhibition at 1 mg/kg, iv administered twice per week; assay type: functional, organism-based
Plasma = assay: Drug uptake in plasma of mouse xenografted with human A549 cells at 150 mg/kg, po measured at 2 to 24 hrs; assay type: ADME, organism-based; details: in vivo
[9] = Mean residence time in mouse at 3 mg/kg, iv; details: in vivo
in vivo [10] = details: mouse, po, 25 mg/kg
Description: Tmax in mouse at 25 mg/kg, po

[11] = Apparent permeability from apical to basolateral side in human Caco2 cells; details: Caco-2
[12] = Mean residence time in mouse at 25 mg/kg, po; details: in vivo
[13] = Half life in mouse hepatocytes
in vivo [14] = details: mouse, po, 25 mg/kg; remark: listed apart in the source
Description: Cmax in mouse at 25 mg/kg, po

A549 [15] = assay: Drug uptake in human A549 cells xenografted in mouse at 150 mg/kg, po measured at 2 to 24 hrs; assay type: ADME, organism-based; details: in vivo
HCT-116 [16] = assay: Antitumor activity against human HCT116 cells xenografted in nude mouse assessed as tumor growth inhibition at 300 mg/kg, po qd; assay type: functional, organism-based
[17] = Metabolic stability of compound in mouse liver microsomes; assay type: ADME
[18] = target: T1, Transitional endoplasmic reticulum ATPase; assay: Inhibition of p97 ATPase (unknown origin)
HCT-116 [19] = assay: Antitumor activity against human HCT116 cells xenografted in nude mouse assessed as tumor growth inhibition at 50 mg/kg, po q2d for 12 days; assay type: functional, organism-based

T1 sequence (P55072 whole entry): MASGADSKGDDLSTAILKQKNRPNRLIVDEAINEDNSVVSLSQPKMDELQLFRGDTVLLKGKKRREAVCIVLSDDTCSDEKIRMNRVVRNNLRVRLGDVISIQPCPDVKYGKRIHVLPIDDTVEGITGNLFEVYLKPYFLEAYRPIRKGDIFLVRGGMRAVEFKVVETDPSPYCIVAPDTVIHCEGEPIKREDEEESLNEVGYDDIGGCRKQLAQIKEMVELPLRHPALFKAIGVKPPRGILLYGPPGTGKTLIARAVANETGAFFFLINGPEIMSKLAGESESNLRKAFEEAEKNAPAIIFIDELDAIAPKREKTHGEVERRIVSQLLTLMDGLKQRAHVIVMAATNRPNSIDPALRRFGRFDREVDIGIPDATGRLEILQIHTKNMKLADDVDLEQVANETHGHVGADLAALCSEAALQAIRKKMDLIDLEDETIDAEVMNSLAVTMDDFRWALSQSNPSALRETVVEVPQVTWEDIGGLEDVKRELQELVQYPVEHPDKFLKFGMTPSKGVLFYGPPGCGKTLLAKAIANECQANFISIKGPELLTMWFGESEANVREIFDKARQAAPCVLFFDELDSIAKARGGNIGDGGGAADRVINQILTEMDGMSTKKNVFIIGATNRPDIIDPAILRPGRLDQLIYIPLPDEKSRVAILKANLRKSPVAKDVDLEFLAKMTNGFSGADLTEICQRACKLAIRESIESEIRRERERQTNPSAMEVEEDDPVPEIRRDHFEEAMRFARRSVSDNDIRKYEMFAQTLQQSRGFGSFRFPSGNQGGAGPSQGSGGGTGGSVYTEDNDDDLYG

## COCCOc1cccc2c(NCc3ccccc3)nc(-n3c(C)nc4ccccc43)nc12
[1]
  IC50: 304 nM

## Nc1nc2ccccc2n1-c1nc2c(c(NCc3ccccc3)n1)CCCC2
[1]
  IC50: 425 nM

## COc1cccc2c(NC(C)c3ccccc3)nc(-n3c(N)nc4ccccc43)nc12 (configuration not stated)
[1]
  IC50: > 5000 nM

## Cc1ccc2c(c1)cc(C)n2-c1nc2c(c(NCc3ccccc3)n1)CNCC2
[1]
  IC50: > 5000 nM

## Cc1cc2c(C(N)=O)cccc2n1-c1nc2c(c(NCc3ccccc3)n1)CCOC2
A549 [2]
  IC50: 1070 nM

## Cc1cc2c(C(=O)NC(C)C)cccc2n1-c1nc2c(c(NCc3ccccc3)n1)CNCC2
[1]
  IC50: 4830 nM

## Cc1ccc2cc(C)n(-c3nc4c(c(NCc5ccccc5)n3)CNCC4)c2c1
[1]
  IC50: 3860 nM

## COc1cccc2c(NCc3ccccc3)nc(Cn3c(C)nc4ccccc43)nc12
[1]
  IC50: > 5000 nM

## COc1ccc2cc(C)n(-c3nc4c(c(NCc5ccccc5)n3)CNCC4)c2c1
[1]
  IC50: > 5000 nM

## COc1cccc2c(NCc3ccccc3)nc(-n3c(N)nc4ccccc43)nc12
[3]
  solubility: < 1 µg/mL
[4]
  IC50: 6140 nM
[1]
  IC50: 815 nM
[5]
  half-life: 7 min
[6]; a549
  IC50: Not Active
A549 [2]
  IC50: 3260 nM
[7]
  IC50: 6610 nM

## CNc1nc2ccccc2n1-c1nc(NCc2ccccc2)c2cccc(OC)c2n1
[1]
  IC50: 233 nM

## CC(C)C[C@H](NC(=O)[C@H](Cc1ccccc1)NC(=O)c1cnccn1)B(O)O
AMO1
  TGI: Active
A549 [8]
  TGI: inactive

## Cc1cc2c(F)cccc2n1-c1nc2c(c(NCc3ccccc3)n1)CNCC2
[1]
  IC50: 342 nM
A549 [2]
  IC50: 6280 nM

## Cc1cc2c(C(F)(F)F)cccc2n1-c1nc2c(c(NCc3ccccc3)n1)CNCC2
[1]
  IC50: 3910 nM

## COc1cccc2c(NC(=O)c3ccccc3)nc(-n3c(N)nc4ccccc43)nc12
[1]
  IC50: > 5000 nM

## Cc1cc2ccc(C#N)cc2n1-c1nc2c(c(NCc3ccccc3)n1)CNCC2
[1]
  IC50: 8910 nM

## Cc1cc2c(C(N)=O)cccc2n1-c1nc2c(c(NCc3ccccc3)n1)COCC2 [CB-5083]
Plasma
  Drug uptake: Active
[3]
  solubility: 32 µg/mL (≈ 77.4 µM)
[9]
  MRT: 70.2 min
In vivo [10]
  Tmax: 30 min
[11]
  Papp A→B: 52.4 ×10⁻⁶ cm/s
[12]
  MRT: 183 min
[13]
  half-life: 172 min
In vivo [14]
  Cmax: 7.95 µM
A549 [15]
  Drug uptake: Active

## COc1cccc2c(Cc3ccccc3)nc(-n3c(N)nc4ccccc43)nc12
[1]
  IC50: > 5000 nM

## Cc1cccc2c1cc(C)n2-c1nc2c(c(NCc3ccccc3)n1)CNCC2
[1]
  IC50: 648 nM
A549 [2]
  IC50: 7850 nM

## CNC(=O)c1cccc2c1cc(C)n2-c1nc2c(c(NCc3ccccc3)n1)CNCC2
[1]
  IC50: 215 nM
A549 [2]
  IC50: 6030 nM

## COc1ccc2c(c1)cc(C)n2-c1nc2c(c(NCc3ccccc3)n1)CNCC2
[1]
  IC50: > 5000 nM

## Cc1cc2c(C(N)=O)cccc2n1-c1nc2c(c(NCc3ccccc3)n1)CNCC2
[3]
  solubility: 1260 µg/mL (≈ 3040 µM)
[4]
  IC50: 1790 nM
[1]
  IC50: 40 nM
[5]
  half-life: 105 min
[6]; read-out: IC50
  IC50: 2000 nM
A549 [2]
  IC50: 2330 nM
[7]
  IC50: 2860 nM

## Cc1cc2c(C(N)=O)cccc2n1-c1nc2c(c(NCc3ccccc3)n1)CCNC2
[1]
  IC50: 71 nM
A549 [2]
  IC50: 2440 nM

## COc1cccc2c(NCCc3ccccc3)nc(-n3c(N)nc4ccccc43)nc12
[1]
  IC50: > 5000 nM

## Cc1cc2cc(C#N)ccc2n1-c1nc2c(c(NCc3ccccc3)n1)CNCC2
[1]
  IC50: > 5000 nM

## COc1nc2ccccc2n1-c1nc2c(c(NCc3ccccc3)n1)CCCC2
[3]
  solubility: < 1 µg/mL
[4]
  IC50: 4240 nM
[1]
  IC50: 76 nM
[5]
  half-life: 11 min
HCT-116 [16]
  TGI: Active
[6]; read-out: IC50
  IC50: 4840 nM
A549 [2]
  IC50: 7450 nM
[7]
  IC50: 9340 nM

## COc1cccc2c(CCc3ccccc3)nc(-n3c(N)nc4ccccc43)nc12
[1]
  IC50: > 5000 nM

## COc1cccc2c(NCc3ccccc3)nc(-n3c(OC)nc4ccccc43)nc12
[1]
  IC50: 145 nM

## NCc1cc2ccccc2n1-c1nc2c(c(NCc3ccccc3)n1)CCCC2
[1]
  IC50: 153 nM
A549 [2]
  IC50: 4700 nM

## COc1cccc2c(NCc3ccccc3)nc(-n3c(C)nc4ccccc43)nc12
[1]
  IC50: 152 nM

## Cc1nc2ccccc2n1-c1nc2c(c(NCc3ccccc3)n1)CCCC2
[1]
  IC50: 98 nM

## Cc1cc2c(C#N)cccc2n1-c1nc2c(c(NCc3ccccc3)n1)CNCC2
[1]
  IC50: 144 nM
A549 [2]
  IC50: 8920 nM

## COCCOc1cccc2c(NCc3ccccc3)nc(-n3c(N)nc4ccccc43)nc12
[1]
  IC50: 907 nM

## COc1cccc2c(NCc3ccccc3)nc(Nc3nc4ccccc4[nH]3)nc12
[1]
  IC50: > 5000 nM

## COc1cccc2c(N(C)Cc3ccccc3)nc(-n3c(N)nc4ccccc43)nc12
[1]
  IC50: > 5000 nM

## Nc1nc2ccccc2n1-c1nc(NCc2ccccc2)c2ccsc2n1
[1]
  IC50: 3000 nM

## COc1cccc2c(NCc3ccccc3)nc(-n3c(N)nc4c3CCCC4)nc12
[1]
  IC50: > 5000 nM

## COCCOc1cccc2c(NCc3ccccc3)nc(-n3c(OC)nc4ccccc43)nc12
[1]
  IC50: 370 nM

## CCc1nc2ccccc2n1-c1nc(NCc2ccccc2)c2cccc(OC)c2n1
[1]
  IC50: > 5000 nM

## FC(F)(F)c1cc2ccccc2n1-c1nc2c(c(NCc3ccccc3)n1)CCCC2
[1]
  IC50: 651 nM
A549 [2]
  IC50: > 40000 nM

## Cc1cc2ccccc2n1-c1nc2c(c(NCc3ccccc3)n1)CNCC2
[3]
  solubility: 750 µg/mL (≈ 2030 µM)
[4]
  IC50: 15300 nM
[17]
  Stability: Stable
[1]
  IC50: 192 nM
[5]; microsomes
  t1/2: Stable
[6]; a549
  IC50: Not Active
A549 [2]
  IC50: 8640 nM
[7]
  IC50: 9150 nM

## COc1cccc2c(NCc3ccccc3)nc(-n3c(N(C)C)nc4ccccc43)nc12
[1]
  IC50: 227 nM

## O=C(CCl)Nc1cccc(NC2=NS(=O)(=O)c3ccccc32)c1
[18]
  IC50: 370 nM

## Nc1nc2ccccc2n1-c1nc2c(c(NCc3ccccc3)n1)CNCC2
[1]
  IC50: > 5000 nM

## COCc1cc2ccccc2n1-c1nc2c(c(NCc3ccccc3)n1)CCCC2
[1]
  IC50: 795 nM
A549 [2]
  IC50: > 40000 nM

## Cc1[nH]c2ccccc2c1-c1nc2c(c(NCc3ccccc3)n1)CCCC2
[1]
  IC50: 149 nM
A549 [2]
  IC50: 15800 nM

## Cc1cc2c(Cl)cccc2n1-c1nc2c(c(NCc3ccccc3)n1)CNCC2
[1]
  IC50: 632 nM
A549 [2]
  IC50: 7240 nM

## COc1cccc2c(NCc3ccccc3)nc(-n3c(=O)[nH]c4ccccc43)nc12
[1]
  IC50: 1070 nM

## COc1nc2ccccc2n1-c1nc(NCc2ccccc2)c2ncsc2n1
[1]
  IC50: 180 nM

## Cc1cc2ccccc2n1-c1nc2c(c(NCc3ccccc3)n1)CCCC2
[1]
  IC50: 47 nM
A549 [2]
  IC50: 6530 nM

## COc1cccc2c(NCc3ccccc3)nc(-n3cnc4ccccc43)nc12
[1]
  IC50: > 5000 nM

## Cc1nc2ccccn2c1-c1nc2c(c(NCc3ccccc3)n1)CCCC2
[1]
  IC50: 248 nM
A549 [2]
  IC50: 18200 nM

## COc1cccc2c(OCc3ccccc3)nc(-n3c(N)nc4ccccc43)nc12
[1]
  IC50: > 5000 nM

## CCc1cc2ccccc2n1-c1nc2c(c(NCc3ccccc3)n1)CCCC2
[1]
  IC50: 445 nM

## OCc1cc2ccccc2n1-c1nc2c(c(NCc3ccccc3)n1)CCCC2
[1]
  IC50: 68 nM
A549 [2]
  IC50: 8400 nM

## Cc1nn2ccccc2c1-c1nc2c(c(NCc3ccccc3)n1)CCCC2
[1]
  IC50: 367 nM
A549 [2]
  IC50: 25000 nM

## COc1cccc2c(NCc3ccccc3)nc(-n3c(N)nc(C)c3C)nc12
[1]
  IC50: > 5000 nM

## COc1cccc2c1cc(C)n2-c1nc2c(c(NCc3ccccc3)n1)CNCC2
[1]
  IC50: 2080 nM

## Cc1cc2c(C(=O)N(C)C)cccc2n1-c1nc2c(c(NCc3ccccc3)n1)CNCC2
[1]
  IC50: > 5000 nM

## COc1nc2ccccc2n1-c1nc2c(c(NCc3ccccc3)n1)CNCC2
[1]
  IC50: 3130 nM

## COc1cc2ccccc2n1-c1nc2c(c(NCc3ccccc3)n1)CCCC2
[1]
  IC50: 43 nM
A549 [2]
  IC50: 7110 nM

## Cc1cc2c(C(N)=O)cccc2n1-c1nc2c(c(NCc3ccccc3)n1)CCCC2
Plasma
  Drug uptake: Active
[3]
  solubility: 4 µg/mL (≈ 9.72 µM)
[4]
  IC50: 500 nM
[1]
  IC50: 6 nM
[5]
  half-life: 44 min
HCT-116 [19]
  TGI: Active
[6]; read-out: IC50
  IC50: 250 nM
A549 [15]
  Drug uptake: Active
A549 [2]
  IC50: 590 nM
[7]
  IC50: 580 nM

## Cc1nc2ccccc2n1-c1nc2c(c(NCc3ccccc3)n1)CNCC2
[1]
  IC50: > 5000 nM

## Cc1cc2c(C(=O)O)cccc2n1-c1nc2c(c(NCc3ccccc3)n1)CNCC2
[1]
  IC50: 95 nM
A549 [2]
  IC50: > 40000 nM

## Cc1cc2c(-c3nnn[nH]3)cccc2n1-c1nc2c(c(NCc3ccccc3)n1)CNCC2
[1]
  IC50: 15 nM
A549 [2]
  IC50: > 40000 nM

## COc1cccc2c(NCc3ccccc3)nc(-n3c(NC(C)=O)nc4ccccc43)nc12
[1]
  IC50: > 5000 nM
